According to PMC3366916, “Characterization of a Conserved Interaction between DNA Glycosylase and ParA in Mycobacterium smegmatis and M. tuberculosis” (PLoS ONE, 2012):

Key:
[1] = biological target: T1, MsTAG (Ms5082) (Mycolicibacterium smegmatis, UniProt A0R2E4); experiment: malachite green phosphate release ATPase assay; format: biochemical; conditions: 200 uM ATP, 150 nM protein, 1 mM MgCl2, 50 mM HEPES pH 8.0, 37 C
T1 construct: gene tag; recombinant, E. coli BL21, pET28a (6xHis) or pGEX-4T-1 (GST)
T1 sequence (A0R2E4 1-209): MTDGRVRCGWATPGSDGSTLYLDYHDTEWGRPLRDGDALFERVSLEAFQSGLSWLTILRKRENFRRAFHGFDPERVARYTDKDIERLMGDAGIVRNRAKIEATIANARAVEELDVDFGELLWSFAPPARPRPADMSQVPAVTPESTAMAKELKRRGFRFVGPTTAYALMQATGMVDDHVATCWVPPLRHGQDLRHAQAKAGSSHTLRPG

[2] = biological target: T2, MtTAG (Rv1210) (Mycobacterium tuberculosis, UniProt O05311)
T2 construct: gene tagA
T2 sequence (O05311 entry or part of it): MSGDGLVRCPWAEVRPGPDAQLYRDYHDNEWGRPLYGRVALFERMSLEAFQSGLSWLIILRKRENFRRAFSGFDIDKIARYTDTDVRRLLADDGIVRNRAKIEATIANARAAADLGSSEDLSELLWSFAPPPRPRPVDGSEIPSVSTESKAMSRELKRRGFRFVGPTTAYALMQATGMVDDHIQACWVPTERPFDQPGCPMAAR

[3] = biological target: T3, MsParA (Ms6939) (Mycolicibacterium smegmatis, UniProt A0R7J4); experiment: malachite green phosphate release ATPase assay; format: biochemical; conditions: 200 uM ATP, 150 nM protein, 1 mM MgCl2, 50 mM HEPES pH 8.0, 37 C
T3 construct: gene MSMEG_6939; recombinant, E. coli BL21, pET28a (6xHis) or pGEX-4T-1 (GST)
T3 sequence (A0R7J4 1-323): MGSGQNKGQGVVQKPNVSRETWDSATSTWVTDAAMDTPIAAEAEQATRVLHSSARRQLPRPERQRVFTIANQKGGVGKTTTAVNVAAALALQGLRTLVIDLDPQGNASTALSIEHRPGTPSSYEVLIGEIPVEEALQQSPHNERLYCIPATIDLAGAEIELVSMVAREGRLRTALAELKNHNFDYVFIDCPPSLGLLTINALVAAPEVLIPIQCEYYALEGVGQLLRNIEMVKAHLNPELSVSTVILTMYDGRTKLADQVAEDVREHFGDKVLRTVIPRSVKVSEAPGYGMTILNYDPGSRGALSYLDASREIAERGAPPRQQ

Compound: Nc1ncnc2c1ncn2[C@@H]1O[C@H](COP(=O)(O)OP(=O)(O)OP(=O)(O)O)[C@@H](O)[C@H]1O [ATP]
- malachite green phosphate release ATPase assay [1]: MsTAG was found to have stronger ATPase activity than MsParA under the same conditions
- malachite green phosphate release ATPase assay [2]: MtTAG had an obvious ATPase activity but Rv1210-K78A, its mutant variant, did not
- malachite green phosphate release ATPase assay [3]: verifying that MsParA had ATPase activity (Fig. 5A)
